According to article PMC5104943, “Structural and Functional Characterization of a Ruminal β-Glycosidase Defines a Novel Subfamily of Glycoside Hydrolase Family 3 with Permuted Domain Topology” (The Journal of Biological Chemistry, 2016):

Target: T1, GlyA1-ΔCt (rumen metagenome, UniProt Z9J456A3C9)
T1 sequence (Z9J456A3C9 2-799): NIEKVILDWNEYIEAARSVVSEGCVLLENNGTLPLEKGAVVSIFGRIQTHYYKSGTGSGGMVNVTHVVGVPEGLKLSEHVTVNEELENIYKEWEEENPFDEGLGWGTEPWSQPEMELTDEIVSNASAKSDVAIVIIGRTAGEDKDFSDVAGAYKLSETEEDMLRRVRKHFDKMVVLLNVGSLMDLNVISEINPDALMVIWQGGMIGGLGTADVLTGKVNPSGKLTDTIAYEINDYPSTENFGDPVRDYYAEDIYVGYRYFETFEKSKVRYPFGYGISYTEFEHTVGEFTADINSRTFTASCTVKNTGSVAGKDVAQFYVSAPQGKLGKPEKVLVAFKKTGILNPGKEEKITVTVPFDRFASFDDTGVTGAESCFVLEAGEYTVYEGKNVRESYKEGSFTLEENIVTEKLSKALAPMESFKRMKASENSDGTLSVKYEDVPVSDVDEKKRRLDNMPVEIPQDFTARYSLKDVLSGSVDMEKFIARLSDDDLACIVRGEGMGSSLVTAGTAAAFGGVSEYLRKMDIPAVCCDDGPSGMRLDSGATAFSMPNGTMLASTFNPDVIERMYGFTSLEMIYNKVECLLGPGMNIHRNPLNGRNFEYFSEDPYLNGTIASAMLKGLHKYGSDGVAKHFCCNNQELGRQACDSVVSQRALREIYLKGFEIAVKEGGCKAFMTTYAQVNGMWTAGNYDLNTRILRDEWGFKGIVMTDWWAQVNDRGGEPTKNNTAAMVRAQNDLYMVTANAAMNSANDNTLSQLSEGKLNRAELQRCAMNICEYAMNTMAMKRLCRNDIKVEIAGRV
Test: X-ray crystallography, […] Å, soak […]
Assay type: binding
Details: active site subsite -1, semi-chair conformation; 2.0 M ammonium sulfate, pH 5.5

Q: For `OC[C@H]1OC(O)[C@H](O)[C@@H](O)[C@H]1O` (stereo partly drawn) [D-galactose], which “X-ray crystallography, 2.29 Å, soak 5-50 mM” value is on record?
A: soaking of crystals with galactose showed that this sugar displays a semi-chair conformation
